# Read-outs that look alike come from different tables or passages of the source.
# Assays:
# [1] = test system: pCA-induced 5-HT syndrome; assay: Inhibition of p-chloroamphetamine (pCA)-induced stereotypy in rats, p.o.; assay type: in vivo, male Sprague-Dawley rats; settings: for inhibition of syndrome at 50 mg/kg: 50 mg/kg p.o.; for ED50: Rattus norvegicus, po; for antagonism of pCA-induced stereotypy (in words): 5 dose levels
# Description: Representative compounds of this invention were tested for their ability to inhibit pCA induced syndrome in rats by the standard procedure described below:
# (§1) Inhibition of p-chloroamphetamine (pCA)-induced stereotypy
# Vehicle or drug (5 dose levels) were administered p.o. to six groups of 6-8 male Sprague-Dawley rats (300-400 g) followed, 90 minutes later, by pCA (10 mg/kg i.p.). The animals were then placed in individual observation chambers and, 30 minutes after pCA administration, the intensity of the pCA-induced 5-HT syndrome was assessed according to the following scoring system:
# head-weaving 0, 1, 2 or 3 according to
# fore-paw treading severity
# (§2) tremor 0 (absent) or 1 (present)
# Therefore, the maximum score for each animal was 10.
# (§3) The inhibition of pCA induced stereotypy is calculated for each dose level as follows: [formula] where
# C=control group total score at 30 minutes post pCA.
# T=group total score of treated group at 30 minutes post pCA.
# For each dose a % effect is calculated.
# The results obtained from the tests using 5 different dose levels of the drug allow the ED50 value (i.e. the dose required to produce 50% inhibition of pCA induced stereotypy) to be calculated.
# The test was carried out using the free bases except for compound C which was tested in the form if its maleate salt and the result corrected for amount of active material.
# [2] = test system: 5-hydroxy-L-tryptophan induced behavioural syndrome; assay: Potentiation of 5-hydroxytryptophan (5-HTP)-induced behaviour in rats; assay type: in vivo, male Sprague-Dawley rats; settings: Rattus norvegicus, po
# Description: The compounds B and C were also tested for their ability to potentiate 5-hydroxy-L-tryptophan induced behavioural syndrome in rats. The test procedure is described below (updated from that described in UK No. 2073179B).
# Potentiation of 5-hydroxytryptophan (5-HTP)-induced behaviour
# Groups of 10 male Sprague-Dawley rats (310-360 g) were dosed p.o. with vehicle or drugs. Ninety minutes later 5-HTP (50 mg/kg s.c.) was administered and the animals placed in individual observation chambers (peripheral decarboxylation was prevented by 25 mg/kg i.p. carbidopa administered 60 minutes before 5-HTP). Head shakes were counted over the period 30-45 minutes after 5-HTP and the intensity of the 5-HT syndrome was scored immediately afterwards using the system described for the pCA procedure above. Percentage potentiation of syndrome was calculated as follows: […]
# 0, 1, 2 or 3 according to severity
# as §2
# Percentage potentiation was calculated from the following: [formula]
# [3] = test system: 5-HT uptake into rat brain synaptosomes; assay: Inhibition of 5-HT uptake into rat brain synaptosomes; assay type: biochemical, male Sprague Dawley rats; settings: for IC50: 37°, 4 minutes; for Selectivity Ratio (5-HT uptake relative to NA uptake): from IC50 NA and IC50 5-HT
# Description: (§4) In vitro tests have shown that compounds of formula I also have a marked degree of selectivity in inhibiting uptake of 5-HT into rat brain synaptosomes relative to uptake of ^3 H noradrenaline. The test procedure involved obtaining synaptosomal preparations from male Sprague Dawley rats according to the method of Grey and Whittaker* as modified by Wood & Wyllie.** Aliquots of the synaptosomal preparation were then incubated with tritrated noradrenaline (NA) or 5-HT at a temperature of 37° for 4 minutes. The active synaptosomal accumulation of labelled substrate was measured by filtration and scintillation counting. The effect at a range of concentrations of test compound enabled IC50 values and selectivity ratios to be calculated.
# [4] = test system: 3H noradrenaline (NA) uptake into rat brain synaptosomes; assay: Inhibition of 3H noradrenaline (NA) uptake into rat brain synaptosomes; assay type: biochemical, male Sprague Dawley rats; settings: 37°, 4 minutes
# Description: as §4
# [5] = test system: pCA-induced stereotypy; assay: Duration of action: inhibition of pCA-induced stereotypy at various times after dosing; assay type: in vivo, male Sprague-Dawley rats; settings: 6 mg/kg p.o.
# Description: as §1
# The animals were then placed in individual observation chambers and, 30 minutes after pCA administration, the intensity of the pCA-induced 5-HT syndrome was assessed according to the following scoring system:
# as §3
# [6] = test system: pCA syndrome; assay: Related duration test on pCA syndrome (with modified scoring); assay type: in vivo; settings: 15 mg/kg
# [7] = rats, p.o., 90 min before pCA 10 mg/kg i.p., scored 30 min after pCA, free bases except C (maleate, corrected for active material), read-out: ED50 (dose required to produce 50% inhibition of pCA induced stereotypy)
# [8] = rats, p.o., 90 min before 5-HTP 50 mg/kg s.c., carbidopa 25 mg/kg i.p., value of C corrected for amount of active ingredient, read-out: ED50 (potentiation of 5-HTP-induced behavioural syndrome)
SMILES,inhibition of syndrome at 50 mg/kg ([1]; rats),"ED50 [1, 7] [mg/kg]","antagonism of pCA-induced stereotypy (in words) ([1]; rats, p.o.)","ED50 [2, 8] [mg/kg]",IC50 [3] [µM],Selectivity Ratio (5-HT uptake relative to NA uptake) [3],IC50 [4] [µM],"% Inhibition of pCA induced stereotypy, time 2 ([5]; time 2 after administration of 5-HT inhibitor (time unit not given))","% Inhibition of pCA induced stereotypy, time 6 ([5]; time 6 after administration of 5-HT inhibitor (time unit not given)) [%]","% Inhibition of pCA induced stereotypy, time 12 ([5]; time 12 after administration of 5-HT inhibitor (time unit not given)) [%]","% Inhibition of pCA induced stereotypy, time 16 ([5]; time 16 after administration of 5-HT inhibitor (time unit not given)) [%]","ED50 ([1]; same test, monohydrochloride corrected for amount of active ingredient, read-out: ED50 (inhibition of pCA induced stereotypy), panuramine) [mg/kg]",duration of action (in words) [6],inhibition after 16 hours ([6]; 16 hours) [%],inhibition after two hours ([6]; two hours) [%],"ED50 ([2]; same test, corrected for amount of base, read-out: ED50 (potentiation of 5-HTP-induced behavioural syndrome), panuramine HCl salt) [mg/kg]"
"O=C(NC(=O)c1ccc2ncccc2c1)NC1CCN(Cc2ccc3ccccc3c2)CC1 [A, N-[[[1-(2-naphthalenylmethyl)-4-piperidinyl]amino]-carbonyl]-6-quinolinecarboxamide]",99%,2.7,antagonised pCA-induced stereotypy in a dose-dependent manner,–,–,–,–,–,–,–,–,–,–,–,–,–
"O=C(NC(=O)c1ccc2ncccc2c1)NC1CCN(Cc2ccc3ncccc3c2)CC1 [B, N-[[[1-(quinol-6-ylmethyl)-4-piperidinyl]amino]-carbonyl]-6-quinolinecarboxamide]",99%,6.5,antagonised pCA-induced stereotypy in a dose-dependent manner,7.3,0.043,207,8.9,–,–,–,–,–,–,–,–,–
"O=C(NC(=O)c1ccc2ncccc2c1)NC1CCN(Cc2ccc3cc(F)ccc3c2)CC1 [C, N-[[[1-(6-fluoro-2-naphthalenylmethyl)-4-piperidinyl]-amino]-carbonyl]-6-quinolinecarboxamide]",99%,2.1,antagonised pCA-induced stereotypy in a dose-dependent manner,2.4,0.082,450,37,ca. 79%,82.8,56.9,57.6,–,–,–,–,–
"O=C(NC(=O)c1ccccc1)NC1CCN(Cc2ccc3ccccc3c2)CC1 [panuramine, 1-benzoyl-3-[1-(naphth-2-ylmethyl)piperid-4-yl]urea, reference compound]",ca. 78%,–,–,–,0.063,135,8.5,–,–,–,–,16.2,much shorter duration of action,12.2,65.1,27.4
